Converted amounts (≈) assume the structure as drawn.
How the values were obtained:
Format in all cases: cell-based
E. coli strain MP-4 = assay: Broth dilution MIC determination (CLSI) against E. coli strain MP-4; conditions: Escherichia coli, MP4
How it was run: (§1)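 Macrolides were serially diluted in broth according to CLSI standards and the minimum inhibitory concentration was read per organism; each MIC was then assigned to one of three bands (+++ ≤4, ++ ≥8 to <32, + ≥32 mg/L).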

[1] = system: K. pneumoniae strain MP-548; assay: Broth dilution MIC determination (CLSI) against K. pneumoniae strain MP-548; conditions: Klebsiella pneumoniae, MP548
How it was run: as §1

[2] = system: P. aeruginosa strain MP-3; assay: Broth dilution MIC determination (CLSI) against P. aeruginosa strain MP-3; conditions: Pseudomonas aeruginosa, MP3
How it was run: as §1

[3] = system: A. baumannii strain MP-15; assay: Broth dilution MIC determination (CLSI) against A. baumannii strain MP-15; conditions: Acinetobacter baumannii, MP15
How it was run: as §1

S. aureus strain MP-12 = assay: Broth dilution MIC determination (CLSI) against S. aureus strain MP-12; conditions: Staphylococcus aureus, MP12, strain MP-12
How it was run: as §1

Compound | MIC (E. coli strain MP-4) | MIC [1] | MIC [2] | MIC [3] | MIC (S. aureus strain MP-12)
C=CC1CO[C@@]2(C)C[C@@H](C)CN[C@H](C)[C@H]3NC(=O)O[C@]3(C)[C@@H](CC)OC(=O)[C@@]1(C)C(=O)[C@H](C)[C@H]2OC1OC(C)CC(N(C)C)C1O (stereo partly shown) [Compound 224] | ≥ 32 mg/L | ≥ 32 mg/L | ≥ 32 mg/L | ≥ 32 mg/L | ≥ 32 mg/L
CC[C@H]1OC(=O)[C@@]2(C)CCO[C@](C)(C[C@@H](C)CN[C@H](C)[C@H]3NC(=O)O[C@@]31C)[C@H](O[C@@H]1O[C@H](CNC34CC(C3)C4)C[C@H](N(C)C)[C@H]1O)[C@@H](C)C2=O [Compound 204] | ≤ 4 mg/L | ≤ 4 mg/L | ≥ 32 mg/L | 8 to 32 mg/L (≈ 11.3 to 45.3 µM) | ≤ 4 mg/L
CC[C@H]1OC(=O)C(C)C(=O)[C@H](C)[C@@H](OC2OC(CN3CCN(C)CC3)CC(N(C)C)C2O)[C@](C)(OC)C[C@@H](C)CN[C@H](C)[C@H]2NC(=O)O[C@@]21C (stereo partly shown) [Compound 126, 3-Descladinosyl-3-oxo-6-O-methyl-N9a-desmethyl-11,12-dideoxy-12,11-(oxycarbonylimino)-6′-(1-(4-methyl)-piperazinyl) Azithromycin] | ≤ 4 mg/L | 8 to 32 mg/L (≈ 11.2 to 44.9 µM) | ≥ 32 mg/L | ≥ 32 mg/L | ≥ 32 mg/L
CC[C@H]1OC(=O)C(C)C(=O)[C@H](C)[C@@H](O[C@@H]2O[C@H](CN(C)C(=O)CN(C)C3CC3)CC(N(C)C)[C@H]2O)[C@](C)(OC)C[C@@H](C)CN[C@H](C)[C@H]2NC(=O)O[C@@]21C (stereo partly shown) [Compound 172, 3-Descladinosyl-3-oxo-6-O-methyl-N9a-desmethyl-11,12-dideoxy-12,11-(oxycarbonylimino)-6′-(N-methyl-N-(2-cyclopropylamino)acetylamino) Azithromycin] | ≥ 32 mg/L | ≥ 32 mg/L | ≥ 32 mg/L | ≥ 32 mg/L | ≥ 32 mg/L
CC[C@H]1OC(=O)C(C)C(=O)[C@H](C)[C@@H](O[C@@H]2O[C@H](CCC(C)C)CC(N(C)C)[C@H]2O)[C@](C)(OC)C[C@@H](C)CN[C@H](C)[C@H]2NC(=O)O[C@@]21C (stereo partly shown) [Compound 183, 3-Descladinosyl-3-oxo-6-O-methyl-N9a-desmethyl-11,12-dideoxy-12,11-(oxycarbonylimino)-6′-isobutyl Azithromycin] | 8 to 32 mg/L (≈ 11.9 to 47.8 µM) | ≥ 32 mg/L | ≥ 32 mg/L | 8 to 32 mg/L (≈ 11.9 to 47.8 µM) | 8 to 32 mg/L (≈ 11.9 to 47.8 µM)
CC[C@H]1OC(=O)C(C)C(=O)[C@H](C)[C@@H](OC2OC(CN(C)CC)CC(N(C)C)C2O)[C@](C)(OC)C[C@@H](C)CN(C)[C@H](C)[C@H]2NC(=O)O[C@@]21C (stereo partly shown) [Compound 158, 3-Descladinosyl-3-oxo-6-O-methyl-11,12-dideoxy-12,11-(oxycarbonylimino)-6′-ethylmethylamino Azithromycin] | ≤ 4 mg/L | 8 to 32 mg/L (≈ 11.7 to 46.7 µM) | ≥ 32 mg/L | ≥ 32 mg/L | ≥ 32 mg/L
CO[C@]1(C)C[C@@H](C)CN[C@H](C)[C@H]2NC(=O)O[C@]2(C)[C@@H](C)OC(=O)C(C)C(=O)[C@H](C)[C@H]1OC1OC(CN(C)C2CCC2)CC(N(C)C)C1O (stereo partly shown) [Compound 155, 3-Descladinosyl-3-oxo-6-O-methyl-N9a-desmethyl-11,12-dideoxy-12,11-(oxycarbonylimino)-6′-methylcyclobutylamino-13-methyl Azithromycin] | ≤ 4 mg/L | 8 to 32 mg/L (≈ 11.7 to 46.9 µM) | ≥ 32 mg/L | 8 to 32 mg/L (≈ 11.7 to 46.9 µM) | ≥ 32 mg/L
CC[C@H]1OC(=O)C(C)C(=O)[C@H](C)[C@@H](OC2OC(CCNC3CC3)CC(N(C)C)C2O)[C@](C)(OC)C[C@@H](C)CN[C@H](C)[C@H]2NC(=O)O[C@@]21C (stereo partly shown) [Compound 187, 3-Descladinosyl-3-oxo-6-O-methyl-N9a-desmethyl-11,12-dideoxy-12,11-(oxycarbonylimino)-5′-desmethyl-5′-(2-(aminocyclopropyl)ethyl) Azithromycin] | ≤ 4 mg/L | ≤ 4 mg/L | ≥ 32 mg/L | ≥ 32 mg/L | ≥ 32 mg/L
CC[C@H]1OC(=O)[C@@]2(C)CCO[C@](C)(C[C@@H](C)CN[C@H](C)[C@H]3NC(=O)O[C@@]31C)[C@H](O[C@@H]1O[C@H](CO)C[C@H](N(C)C)[C@H]1O)[C@@H](C)C2=O [Compound 195] | ≥ 32 mg/L | ≥ 32 mg/L | ≥ 32 mg/L | ≥ 32 mg/L | ≥ 32 mg/L
CC[C@H]1OC(=O)[C@]2(C)CCO[C@](C)(C[C@@H](C)CN[C@H](C)[C@H]3NC(=O)O[C@@]31C)[C@H](O[C@@H]1O[C@H](CO)C[C@H](N(C)C)[C@H]1O)[C@@H](C)C2=O [Compound 194] | ≥ 32 mg/L | ≥ 32 mg/L | ≥ 32 mg/L | ≥ 32 mg/L | ≥ 32 mg/L
CC[C@H]1OC(=O)[C@@]2(C)CCOC(C)(C[C@@H](C)CN[C@H](C)[C@H]3NC(=O)O[C@@]31C)[C@H](O[C@@H]1OC(CNC3CC3)CC(N(C)C)C1O)[C@@H](C)C2=O (stereo partly shown) [Compound 80] | ≤ 4 mg/L | ≤ 4 mg/L | 8 to 32 mg/L (≈ 11.7 to 47 µM) | 8 to 32 mg/L (≈ 11.7 to 47 µM) | ≤ 4 mg/L
CC[C@H]1OC(=O)C(C)C(=O)[C@H](C)[C@@H](OC2OC(CN(C)C)CC(N(C)C)C2O)[C@](C)(OC)C[C@@H](C)CN(C)[C@H](C)[C@H]2NC(=O)O[C@@]21C (stereo partly shown) [Compound 159, 3-Descladinosyl-3-oxo-6-O-methyl-11,12-dideoxy-12,11-(oxycarbonylimino)-6′-dimethylamino Azithromycin] | ≤ 4 mg/L | 8 to 32 mg/L (≈ 11.9 to 47.7 µM) | ≥ 32 mg/L | ≥ 32 mg/L | ≥ 32 mg/L

Further lines, results first:

MIC (E. coli strain MP-4) | MIC [1] | MIC [2] | MIC [3] | MIC (S. aureus strain MP-12) | Compound
≥ 32 mg/L | ≥ 32 mg/L | ≥ 32 mg/L | ≥ 32 mg/L | ≥ 32 mg/L | CC[C@H]1OC(=O)C(C)C(=O)[C@H](C)[C@@H](O[C@@H]2OC(CNCc3cn(-c4cncnc4)nn3)CC(N(C)C)C2O)[C@](C)(OC)C[C@@H](C)CN[C@H](C)[C@H]2NC(=O)O[C@@]21C (stereo partly shown) [Compound 24]
≤ 4 mg/L | ≥ 32 mg/L | ≥ 32 mg/L | ≥ 32 mg/L | ≥ 32 mg/L | CC[C@H]1OC(=O)C(C)C(=O)[C@H](C)[C@@H](O[C@@H]2OC(CNCc3ccc(N(C)C)cc3)CC(N(C)C)C2O)[C@](C)(OC)C[C@@H](C)CN[C@H](C)[C@H]2NC(=O)O[C@@]21C (stereo partly shown) [Compound 44]
≤ 4 mg/L | ≥ 32 mg/L | ≥ 32 mg/L | ≥ 32 mg/L | ≥ 32 mg/L | CC[C@H]1OC(=O)C(C)C(=O)[C@H](C)[C@@H](O[C@@H]2OC(CNCc3ccc(C#N)cc3)CC(N(C)C)C2O)[C@](C)(OC)C[C@@H](C)CN[C@H](C)[C@H]2NC(=O)O[C@@]21C (stereo partly shown) [Compound 40]
≤ 4 mg/L | ≤ 4 mg/L | ≥ 32 mg/L | 8 to 32 mg/L (≈ 11.7 to 46.9 µM) | ≥ 32 mg/L | CC[C@H]1OC(=O)C(C)C(=O)[C@H](C)[C@@H](OC2OC(CN[C@@H]3C[C@H]3C)CC(N(C)C)C2O)[C@](C)(OC)C[C@@H](C)CN[C@H](C)[C@H]2NC(=O)O[C@@]21C (stereo partly shown) [Compound 134, 3-Descladinosyl-3-oxo-6-O-methyl-N9a-desmethyl-11,12-dideoxy-12,11-(oxycarbonylimino)-6′-((1″R,2″R)-2″-methylcyclopropyl)amino Azithromycin]
≤ 4 mg/L | ≥ 32 mg/L | ≥ 32 mg/L | ≥ 32 mg/L | ≥ 32 mg/L | CC[C@H]1OC(=O)C(C)C(=O)[C@H](C)[C@@H](O[C@@H]2OC(CNCc3ccc(F)cc3F)CC(N(C)C)C2O)[C@](C)(OC)C[C@@H](C)CN[C@H](C)[C@H]2NC(=O)O[C@@]21C (stereo partly shown) [Compound 31]
≤ 4 mg/L | 8 to 32 mg/L (≈ 12 to 48 µM) | ≥ 32 mg/L | ≥ 32 mg/L | ≥ 32 mg/L | C#CCNCC1CC(N(C)C)C(O)[C@H](O[C@@H]2[C@@H](C)C(=O)C(C)C(=O)O[C@H](CC)[C@@]3(C)OC(=O)N[C@@H]3[C@@H](C)NC[C@H](C)C[C@@]2(C)OC)O1 (stereo partly shown) [Compound 53]
8 to 32 mg/L (≈ 10.6 to 42.3 µM) | ≥ 32 mg/L | ≥ 32 mg/L | ≥ 32 mg/L | ≥ 32 mg/L | CC[C@H]1OC(=O)C(C)C(=O)[C@H](C)[C@@H](O[C@@H]2OC(CNc3ccc4ncncc4c3)CC(N(C)C)C2O)[C@](C)(OC)C[C@@H](C)CN[C@H](C)[C@H]2NC(=O)O[C@@]21C (stereo partly shown) [Compound 27]
≤ 4 mg/L | 8 to 32 mg/L (≈ 11.1 to 44.3 µM) | ≥ 32 mg/L | ≥ 32 mg/L | 8 to 32 mg/L (≈ 11.1 to 44.3 µM) | CC[C@H]1OC(=O)C(C)C(=O)[C@H](C)[C@@H](O[C@@H]2OC(CNc3ccccc3F)CC(N(C)C)C2O)[C@](C)(OC)C[C@@H](C)CN[C@H](C)[C@H]2NC(=O)O[C@@]21C (stereo partly shown) [Compound 47]
≤ 4 mg/L | ≥ 32 mg/L | ≥ 32 mg/L | ≥ 32 mg/L | ≥ 32 mg/L | CC[C@H]1OC(=O)C(C)C(=O)[C@H](C)[C@@H](O[C@@H]2OC(CNCc3ccccc3)CC(N(C)C)C2O)[C@](C)(OC)C[C@@H](C)CN[C@H](C)[C@H]2NC(=O)O[C@@]21C (stereo partly shown) [Compound 28]
8 to 32 mg/L (≈ 12.2 to 48.7 µM) | ≥ 32 mg/L | ≥ 32 mg/L | ≥ 32 mg/L | ≥ 32 mg/L | CCNCC1CC(N(C)C)C(O)C(O[C@@H]2[C@@H](C)C(=O)C(C)C(=O)O[C@H](CC)[C@@]3(C)OC(=O)N[C@@H]3[C@@H](C)NC[C@H](C)C[C@@]2(C)OC)O1 (stereo partly shown) [Compound 108, 3-Descladinosyl-3-oxo-6-O-methyl-N9a-desmethyl-11,12-dideoxy-12,11-(oxycarbonylimino)-6′-ethylamino azithromycin]
≤ 4 mg/L | ≤ 4 mg/L | ≥ 32 mg/L | ≥ 32 mg/L | ≥ 32 mg/L | CC[C@H]1OC(=O)C(C)C(=O)[C@H](C)[C@@H](OC2OC(CNCCF)CC(N(C)C)C2O)[C@](C)(OC)C[C@@H](C)CN[C@H](C)[C@H]2NC(=O)O[C@@]21C (stereo partly shown) [Compound 111, 3-Descladinosyl-3-oxo-6-O-methyl-N9a-desmethyl-11,12-dideoxy-12,11-(oxycarbonylimino)-6′-(2-fluoroethylamino) Azithromycin]
